Data published in the supplement of paper PMC10307832.

What was measured:
Assay in all cases: relative viability (nuclei count vs DMSO), 5 days (fraction); higher = more cells survive
Tipifarnib + Decitabine = compound: Cn1cncc1[C@@](N)(c1ccc(Cl)cc1)c1ccc2c(c1)c(-c1cccc(Cl)c1)cc(=O)n2C [Tipifarnib] + Nc1ncn([C@H]2C[C@H](O)[C@@H](CO)O2)c(=O)n1 [Decitabine] (partner 2 µM)
Outline: (§1)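 Each reported value is a median over duplicate plates. It expresses relative viability: treated-well nuclei count divided by vehicle-well nuclei count. Lung cancer cell lines in 1536-well plates were dosed by pin tool a day after seeding, alone with one drug or with a fixed anchor-drug dose plus five library-drug doses (not always all listed) in √10 steps, and nuclei were counted after 5 days.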

Tipifarnib + Crizotinib = compound: Cn1cncc1[C@@](N)(c1ccc(Cl)cc1)c1ccc2c(c1)c(-c1cccc(Cl)c1)cc(=O)n2C [Tipifarnib] + C[C@@H](Oc1cc(-c2cnn(C3CCNCC3)c2)cnc1N)c1c(Cl)ccc(F)c1Cl [Crizotinib] (partner 1 µM)
Outline: as §1

Tipifarnib + Phenformin = compound: Cn1cncc1[C@@](N)(c1ccc(Cl)cc1)c1ccc2c(c1)c(-c1cccc(Cl)c1)cc(=O)n2C [Tipifarnib] + N=C(N)NC(=N)NCCc1ccccc1 [Phenformin] (partner 250 µM)
Outline: as §1

Tipifarnib + Navitoclax = compound: Cn1cncc1[C@@](N)(c1ccc(Cl)cc1)c1ccc2c(c1)c(-c1cccc(Cl)c1)cc(=O)n2C [Tipifarnib] + CC1(C)CCC(c2ccc(Cl)cc2)=C(CN2CCN(c3ccc(C(=O)NS(=O)(=O)c4ccc(N[C@H](CCN5CCOCC5)CSc5ccccc5)c(S(=O)(=O)C(F)(F)F)c4)cc3)CC2)C1 [Navitoclax] (partner 0.5 µM)
Outline: as §1

Cell Line	relative viability (Tipifarnib + Decitabine; first compound 0.01 µM)	relative viability (Tipifarnib + Decitabine; first compound 0.03162 µM)	relative viability (Tipifarnib + Decitabine; first compound 0.1 µM)	relative viability (Tipifarnib + Decitabine; first compound 0.3162 µM)	relative viability (Tipifarnib + Decitabine; first compound 1 µM)	relative viability (Tipifarnib + Crizotinib; first compound 0.01 µM)	relative viability (Tipifarnib + Crizotinib; first compound 0.03162 µM)	relative viability (Tipifarnib + Crizotinib; first compound 0.1 µM)	relative viability (Tipifarnib + Crizotinib; first compound 0.3162 µM)	relative viability (Tipifarnib + Crizotinib; first compound 1 µM)	relative viability (Tipifarnib + Phenformin; first compound 0.01 µM)	relative viability (Tipifarnib + Phenformin; first compound 0.03162 µM)	relative viability (Tipifarnib + Phenformin; first compound 0.1 µM)	relative viability (Tipifarnib + Phenformin; first compound 0.3162 µM)	relative viability (Tipifarnib + Phenformin; first compound 1 µM)	relative viability (Tipifarnib + Navitoclax; first compound 0.01 µM)	relative viability (Tipifarnib + Navitoclax; first compound 0.03162 µM)	relative viability (Tipifarnib + Navitoclax; first compound 0.1 µM)	relative viability (Tipifarnib + Navitoclax; first compound 0.3162 µM)	relative viability (Tipifarnib + Navitoclax; first compound 1 µM)
NCI-H727	0.862	0.811	0.855	0.765	0.851	0.958	0.838	0.746	0.695	0.675	0.529	0.501	0.544	0.617	0.539	0.622	0.53	0.421	0.41	0.277
NCI-H838	0.466	0.452	0.46	0.413	0.38	0.694	0.538	0.434	0.434	0.433	0.547	0.504	0.421	0.44	0.389	1.09	0.978	0.932	0.854	0.862
NCI-H1355	0.372	0.397	0.328	0.317	0.321	1.19	1.05	0.764	0.64	0.673	0.427	0.44	0.429	0.403	0.344	0.906	0.791	0.767	0.614	0.628
NCI-H1437	0.597	0.618	0.613	0.635	0.593	0.978	0.959	1	0.763	0.894	0.266	0.315	0.296	0.218	0.228	1.14	1.07	1.06	1.03	0.927
NCI-H1650	0.307	0.298	0.309	0.357	0.304	0.47	0.454	0.401	0.324	0.337	0.291	0.209	0.196	0.262	0.187	0.666	0.352	0.402	0.291	0.289
NCI-H1651	0.667	0.597	0.658	0.761	0.421	0.951	0.856	0.893	0.789	0.843	0.322	0.327	0.319	0.266	0.235	1.15	1.21	0.994	0.912	0.895
NCI-H1666	0.698	0.739	0.768	0.598	0.571	0.958	0.816	0.761	0.626	0.843	0.526	0.502	0.552	0.471	0.575	0.853	0.758	0.727	0.644	0.637
NCI-H1734	0.565	0.485	0.557	0.434	0.369	0.802	0.589	0.425	0.444	0.352	0.391	0.352	0.373	0.251	0.275	0.882	0.718	0.635	0.464	0.431
NCI-H1755	0.726	0.761	0.739	0.746	0.741	0.83	0.79	0.818	0.742	0.688	0.703	0.594	0.564	0.577	0.418	1.02	0.971	0.968	0.776	0.851
NCI-H1792	0.446	0.439	0.308	0.28	0.272	1.02	0.888	0.742	0.54	0.438			0.125	0.0695	0.114	0.717	0.583	0.466	0.364	0.108
NCI-H1915	0.272	0.245	0.284	0.232	0.257	0.7	0.684	0.431	0.405	0.425	0.383	0.359	0.341	0.267	0.236	0.791	0.65	0.768	0.455	0.469
NCI-H1944	0.421	0.452	0.413	0.346	0.404	1.12	0.92	0.624	0.568	0.609	0.207	0.194	0.163	0.155	0.168	1.18	0.826	0.913	0.519	0.524
NCI-H1975	0.425	0.419	0.37	0.317	0.317	0.93	0.989	0.717	0.566	0.49	0.435	0.403	0.413	0.347	0.274	1.29	1.04	1.08	0.541	0.734
NCI-H1993	0.666	0.551	0.579	0.528	0.545	0.77	0.749	0.617	0.595	0.661	0.414	0.508	0.529	0.518	0.559	0.852	0.866	0.765	0.645	0.671
NCI-H2009	0.382	0.378	0.362	0.357	0.323	0.994	1.01	0.789	0.563	0.578	0.525	0.492	0.388	0.386	0.352	1.13	1.06	0.785	0.63	0.744
NCI-H2023	0.219	0.2	0.215	0.176	0.165	0.491	0.495	0.302	0.27	0.333	0.415	0.381	0.273	0.272	0.236	1.01	0.773	0.68	0.457	0.47
